From PMC10424183, “Determination of Ligand-Binding Affinity (Kd) Using Transverse Relaxation Rate (R2) in the Ligand-Observed ^1H NMR Experiment and Applications to Fragment-Based Drug Discovery” (Journal of Medicinal Chemistry, 2023)
pKd: −log10 of the molar value. Like-named read-outs stand apart in the source and are kept apart here.

Experiments:
[1] = molecular target: T1, BCL6 BTB (Homo sapiens, UniProt P41182); test: R2KD ligand-observed 1H NMR assay (Kd from transverse relaxation rate R2); type: binding
T1 construct: made in house
Method: Four aqueous stock solutions were prepared in Eppendorf Safe-Lock tubes (Cat no. 0030120094) by manual pipetting: (1) ligand aqueous stock solution was prepared by adding 50 mM ligand DMSO-d6 solution to aqueous buffer; (2) dimethyl sulfoxide (DMSO) aqueous stock solution was prepared by adding the same volume of DMSO-d6 as ligand DMSO-d6 solution to aqueous buffer; (3) protein aqueous stock solution was prepared by adding protein solution to aqueous buffer; and (4) aqueous solution was the buffer used in the assay.
Samples were prepared on a Bruker SamplePro-Tube liquid handler by mixing different volume of the four aqueous stocks in 96-well microplates (Greiner 650201) and then transferred to 3 mm NMR tubes (Figure 2). 10 samples were prepared: samples 1–8 containing increasing ligand concentration (maintaining constant protein concentration); sample 9 and 10 containing only ligands at two different concentrations (protein absent). These two samples served as control samples to obtain the R2 values of free ligand. The final percentage of DMSO-d6 in all samples were identical to minimize possible impacts of DMSO-d6.
The R2 values of four aromatic ^1H-NMR signals (Figure 3B) were experimentally determined (Figure 3C) and (R2,obs – R2F) * LT values were calculated using Excel and used as y-axis values in Prism, while ligand concentrations were plotted as the x-axis values (Figure 3D). All four NMR peaks were used to fit a global Kd with non-linear regression using a customized equation (see Experimental Section), while α values were fitted as an individual parameter for each peak (Figure 3E) as α values differ depending on the individual proton’s environment. While it was possible to fit Kd values using individual NMR peaks and then average the values (Figure 3F), we found using a global fitting algorithm increased robustness of curve fitting and better accommodated outliers in the data. The goodness of fit was judged by 95% confidence interval (CI) (profile likelihood) values and R squared value. The global Kd obtained here is close to the Ki value (54 vs 50 μM) although from our accuracy study, the differences can be larger (see section “Assay Accuracy”).
NMR data were collected at 298 K on a Bruker AVANCE NEO 600 MHz spectrometer, equipped with 5 mm TCI CryoProbe using Bruker Topspin 4.0. The T2 relaxation experiment was acquired using pulse program CPMG with 3-9-19 pulse sequence with gradients incorporated to suppress the water signal.[22] Extra water suppression was achieved by adding presaturation during D1. The spin-echo period (delay-180°-delay) was set to 1 msec (d20 is 500 μs), and the relaxation delay (d1) was set to 10 s. The pseudo-2D experiment contained nine slices with spin-echo period repeated the following times: 4, 20, 100, 200, 300, 500, 700, 1000, and 2000. The T2 relaxation experiment was processed using MestReNova 14.1, and Data Analysis Module of MestReNova was used to obtain integrals of individual ^1H-NMR signals, which were used to calculate R2 with equation I = I0exp (−tR2).
Nonlinear regression analysis was carried out using GraphPad Prism 9.2.0. Equation 12 was defined in user-defined equations as: Y = 0.5α*((X + Kd + P) −sqrt((sqr(X + Kd + P)) – 4*P*X)) where Y was calculated from eq 13 and X is the total ligand concentration. Three parameters: P, α, and Kd were in the equation with the initial value set at 1. In the default constraints setting, P was “constant equal to” the total protein concentration, Kd was “shared value for all data sets”, and α was “must be greater than […]”. CIs of parameters was calculated at 95% level using Asymmetrical (Profile-likelihood) CI.

[2] = molecular target: T1, BCL6 BTB; design: method as in PMID 36329085; details: SPR; read-out: Kd value from SPR assay (printed in the Ki column, footnote a); cited from earlier work

pKd ([1]; R2KD assay upper detection limit example, read-out: largest Kd determined accurately): ~3.00
pKd ([1]; R2KD assay, repeated three times (average), read-out: Kd): 2.98
pKd ([1]; single experiment, four peaks, global Kd fitting, unit inferred, read-out: Kd, global (shared) fit): 3.04
Structure (SMILES): Cc1cc(Nc2ccc(F)cc2)n2ncnc2n1 [CCT040036]
pKd [2]: 2.82
